Laboratory results from patent US8809358B2, “Use of IκB-kinase inhibitors in pain therapy” (Sanofi-Aventis Deutschland GmbH, priority 2002, dated 2014).

What was measured:
[1] = system: Zymosan-induced paw inflammation; assay: Zymosan-induced paw inflammation in the rat: paw withdrawal threshold during mechanical stimulation (von Frey test); format: in vivo; conditions: for Change in the paw withdrawal threshold (%): 30 mg/kg i.p. 15 min before, 2.5 and 5.5 h after Zymosan
Procedure: (§1) • Zymosan-induced paw inflammation in the rat; • Parameter: paw withdrawal time or paw withdrawal threshold during thermal or mechanical stimulation of the hind paw. 2nd Model: • Kaolin/carrageenan-induced knee joint inflammation in the rat; • Parameter: reaction of spinal neurons during pressure stimulation of the knee. Model 1
(§2) Experimental implementation: in short-term anesthesia using isoflurane, 1 mg of Zymosan (as a suspension in 100 μl of PBS (phosphate-buffered salt solution)) was injected subcutaneously into the middle of the plantar side of one of the experimental animal's hind paws. After that, two different behavioral tests were used to quantitatively determine the development of a hyperalgesia.
b) Determining the Paw Withdrawal Threshold During Mechanical Stimulation (von Frey Test)
The experimental animal was placed in a transparent plastic chamber whose floor consisted of wire-gauze. Punctuate pressure of defined strength was produced using calibrated nylon fibers, what are termed von Frey hairs. The weakest pressure stimulation during which the animal withdrew its paw determines the mechanical pain threshold.
(§3) About half an hour before, and at various times after, the Zymosan injection, the thermal and mechanical pain thresholds were determined on the right hind paw and on the left hind paw (see Tables 1, 2). The decrease in the ipsilateral pain threshold, expressed in % of the contralateral pain threshold, was then calculated (see Tables 1, 2). The degree of hyperalgesia is directly proportional to the magnitude of this decrease.
(§4) In a control group, the Zymosan injection induced pronounced mechanical and thermal hyperalgesia (see control data in Tabs. 1 and 2).

[2] = system: Zymosan-induced paw inflammation; assay: Zymosan-induced paw inflammation in the mouse: paw withdrawal time during thermal stimulation of the hind paw; format: in vivo; conditions: for Statistical difference as compared with the vehicle: thermal hyperalgesia AUC
Procedure: • Zymosan-induced paw inflammation in the mouse; • Parameter: paw withdrawal time during thermal stimulation of the hind paw. Experimental implementation: In short-term anesthesia using isoflurane, 25 μl of a suspension containing 50 mg of zymosan/ml were injected into the right hind paw of the experimental animal. The development of a hyperalgesia was then determined quantitatively as follows: Determining the Paw Withdrawal Time During Thermal Stimulation (Hargreave's Test; See Above). The experimental animal was placed in a transparent plastic chamber having a glass floor. As soon as the experimental animal was no longer moving, following the reconnaissance phase (about 5 min), an infrared light source was positioned directly below the hind paw to be stimulated and switched on. The lamp emitted focused infrared light of increasing intensity such that the skin temperature of the hind paw increased almost linearly. As soon as the animal withdrew the paw, the lamp switched itself off. The temperature of the paw at the time it is withdrawn has just become unpleasant for the animal; this is referred to as the thermal pain threshold. Shortly before the zymosan injection, and for from 7 to 14 days after the injection, the thermal pain threshold was determined once daily on the right hind paw and left hind paw. Subsequently, the integral of the area which was formed from the curves for the paw withdrawal times of the inflamed paw and the noninflamed paw (AUC, area between the curves, see tables 5 and 6) was determined as a measure of the hyperalgesia. The larger this value is, the more pronounced is the hyperalgesia, and the smaller the value is in animals which are being given the substance, the greater is the success of the therapy. […] A very high dose of paracetamol was likewise administered twice daily to another group of animals which was taken through the experiment in parallel. […] The scheme for zymosan injection and dosing was identical to that in the previously described study. The only difference was that this additional study ran for 14 days.

[3] = system: Zymosan-induced paw inflammation; assay: Zymosan-induced paw inflammation in the rat: paw withdrawal time during thermal stimulation (Hargreaves test); format: in vivo; conditions: for Change in the paw withdrawal time (%): 30 mg/kg i.p. 15 min before, 2.5 and 5.5 h after Zymosan
Procedure: as §1, §2
a) Determining the Paw Withdrawal Time During Thermal Stimulation (Hargreaves Test).
The experimental animal was placed in a transparent plastic chamber having a glass floor. As soon as the experimental animal was no longer moving, following the reconnaissance phase (about 5 min), an infrared light source was positioned directly below the hind paw to be stimulated and switched on. The lamp emitted focused infrared light of increasing intensity, such that the skin temperature of the hind paw increased almost linearly. As soon as the animal withdrew the paw, the lamp switched itself off. The temperature of the paw at the time it is withdrawn has just become unpleasant for the animal; this is referred to as the thermal pain threshold.
as §3, §4

[4] = system: Zymosan-induced paw inflammation; assay: Zymosan-induced paw inflammation in the mouse: spontaneous running performance in a running wheel; format: in vivo, C57/B6 mice; conditions: for Statistical difference as compared with the vehicle: running wheel AUC, seven days
Procedure: 4th Model: • Zymosan-induced paw inflammation in the mouse; • Parameter: spontaneous running performance in a running wheel. In the cage in which it is kept, the experimental animal has access to a running wheel, the revolutions of which are recorded electronically. During the night hours, the C57/B6 mice use the running wheel voluntarily and, after a one-week phase of acclimatization, cover on average 4 100 meters/night. After zymosan has been injected, the distance run each night is reduced. This reduction in running performance is a valid parameter for a restriction in function which is due to inflammation pain. Experimental implementation: After an acclimatization phase of one week, the distance run/24 hours was measured in order to determine the base line. 25 μl of a suspension containing 50 mg of zymosan/ml were then injected into the right hind paw of the experimental animal during short-term anesthesia using isoflurane. The distance run/24 hours was then determined during the following seven days. In the analysis, the area under the curve for the values for the distance run was determined (AUC, tab. 7): the lower the AUC, the lower was the running performance during the week following injection of the zymosan. […] The substance was administered for the first time on day 1 after injection of the zymosan.

## CNc1nccc(-c2cc3cc(C(=O)N[C@@H](CN(c4ccccc4)c4ccccc4)c4n[nH]c(=O)o4)ccc3[nH]2)n1 [Compound 13, N—[(S)-2-diphenylamino-1-(5-oxo-4,5-dihydro[1,3,4]oxadiazol-2-yl)ethyl]-2-(2-methylaminopyrimidin-4-yl)-1H-indole-5-carboxamide]
[1]; 30 mg/kg i.p.
  onset of the effect on mechanical hyperalgesia after Zymosan injection: 1 h
[1]; 2 h after Zymosan injection
  Change in the paw withdrawal threshold (%): −36.0%
[1]; 24 h after Zymosan injection
  Change in the paw withdrawal threshold (%): −9.7%
[1]; Baseline −0.5 h
  Change in the paw withdrawal threshold (%): 0.0%
[1]; 30 mg/kg i.p. three times
  mechanical hyperalgesia: significantly reduced
  persistence of the effect on mechanical hyperalgesia after the last administration: ≥ 18 h
[1]; mechanical hyperalgesia
  activity in the test model: very strong
[2]; mouse, 7-day study
  activity in the test model: very strong activity
  reduction of thermal hyperalgesia compared with paracetamol: to a greater extent
[2]; mouse, 7-day study, orally twice daily
  AUC (thermal hyperalgesia), dose dependence: decreased in a dose-dependent manner
[2]; mouse, 14-day study
  thermal hyperalgesia, dose dependence: reduce thermal hyperalgesia in a dose-dependent manner
[2]; mouse, 14-day study, high dosage
  effect on thermal hyperalgesia at the high dosage, compound 13 versus Celecoxib: equally strong effects
[2]; 14 days, 25 mg/kg
  Statistical difference as compared with the vehicle: yes
[2]; seven days, 2.8 mg/kg orally twice daily
  Statistical difference as compared with the vehicle: no
[2]; seven days, 25 mg/kg orally twice daily
  Statistical difference as compared with the vehicle: yes
[2]; seven days, 75 mg/kg orally twice daily
  Statistical difference as compared with the vehicle: yes
[3]; 4 h after Zymosan injection
  Change in the paw withdrawal time (%): −16.0%
[3]; 5 h after Zymosan injection
  Change in the paw withdrawal time (%): −9.7%
[3]; 6 h after Zymosan injection
  Change in the paw withdrawal time (%): 5.0%
[3]; 7 h after Zymosan injection
  Change in the paw withdrawal time (%): 3.4%
[3]; 24 h after Zymosan injection
  Change in the paw withdrawal time (%): −3.8%
[3]; Baseline −0.5 h
  Change in the paw withdrawal time (%): 0.0%
[3]; 30 mg/kg i.p. three times
  persistence of the effect on thermal hyperalgesia after the last administration: ≥ 18 h
[3]; 30 mg/kg i.p., after the third administration of the substance
  side difference in the paw withdrawal time: no longer possible to observe any side difference at all
[3]; 30 mg/kg i.p., from two hours after Zymosan injection onward
  thermal hyperalgesia compared with the control group: less pronounced
[3]; comparative data from a study carried out previously
  reduction of thermal hyperalgesia compared with the NSAID diclofenac: considerably more powerfully
[3]; thermal hyperalgesia
  activity in the test model: very strong
[4]; mouse, 7 days, both the higher doses
  distance run as compared with the vehicle group: dose-dependent increase
[4]; 2.8 mg/kg twice daily
  Statistical difference as compared with the vehicle: no
[4]; 25 mg/kg twice daily
  Statistical difference as compared with the vehicle: yes
[4]; 75 mg/kg twice daily
  Statistical difference as compared with the vehicle: yes
